Source: patent US7189680B2, “5-halo-6-aryl[1,2,4]triazolo[1,5-a]pyrimidin-7-amines” (Bayer Cropscience AG, priority 2001, dated 2007)

Tests used:
[1] = logP determination by HPLC (EEC directive 79/831 Annex V. A8); assay type: physicochemical; conditions: for logP*: HPLC gradient method, acetonitrile/0.1% aqueous phosphoric acid, Table 1; for logP: Table 2, carbamates of formula (VIII)
Description: *) The logP values were determined in accordance with EEC directive 79/831 Annex V. A8 by HPLC (gradient method, acetonitrile/0.1% aqueous phosphoric acid)

Alternaria solani = assay: Alternaria test (tomato)/protective; assay type: in vivo; conditions: protective, 750 g/ha, evaluation 7 days after inoculation
Description: To produce an appropriate preparation of active compound, 1 part by weight of active compound is mixed with the stated amounts of solvent and emulsifier, and the concentrate is diluted with water to the desired concentration.
To test for protective activity, young tomato plants are sprayed with the active compound preparation at the application rate indicated. One day after treatment, the plants are inoculated with a spore suspension of Alternaria solani and then stand at 100% relative humidity and 20° C. for 24 h. The plants subsequently stand at 96% relative humidity and a temperature of 20° C.
Evaluation is made 7 days after inoculation. 0% denotes an efficacy corresponding to that of the control while an efficacy of 100% means that no infestation is observed.

Row | SMILES | logP* [1] | also measured
1 | CCCCONc1c(-c2ccccc2F)c(Cl)nc2ncnn12 [Example 100] | 2.85 | 
2 | Fc1ccccc1-c1c(Cl)nc2ncnn2c1NOCc1c(Cl)cccc1Cl [Example 101] | 3.3 | 
3 | CCONc1c(-c2c(F)cccc2F)c(Cl)nc2ncnn12 [Example 102] | 2.18 | 
4 | Fc1cccc(F)c1-c1c(Cl)nc2ncnn2c1NOCc1ccccc1 [Example 103] | 2.8 | 
5 | Fc1cccc(F)c1-c1c(Cl)nc2ncnn2c1NOCc1cc(Cl)cc(Cl)c1 [Example 104] | 3.63 | 
6 | Fc1cccc(F)c1-c1c(Cl)nc2ncnn2c1NOCc1ccc(C(F)(F)F)cc1 [Example 105] | 3.32 | 
7 | Fc1cccc(F)c1-c1c(Cl)nc2ncnn2c1NOCc1ccccc1Cl [Example 106] | 3.07 | 
8 | Fc1ccc(CONc2c(-c3c(F)cccc3F)c(Cl)nc3ncnn23)cc1 [Example 107] | 2.86 | 
9 | Fc1cccc(F)c1-c1c(Cl)nc2ncnn2c1NOCc1cccc(C(F)(F)F)c1 [Example 108] | 3.3 | 
10 | CCCCONc1c(-c2c(F)cccc2F)c(Cl)nc2ncnn12 [Example 109] | 2.83 | 
11 | Fc1cccc(F)c1-c1c(Cl)nc2ncnn2c1NOCc1c(Cl)cccc1Cl [Example 110] | 3.2 | 
12 | Fc1c(F)c(F)c(-c2c(Cl)nc3ncnn3c2NOCc2ccccc2)c(F)c1F [Example 112] | 3.37 | 
13 | Fc1c(F)c(F)c(-c2c(Cl)nc3ncnn3c2NOCc2cc(Cl)cc(Cl)c2)c(F)c1F [Example 113] | 4.07 | 
14 | Fc1c(F)c(F)c(-c2c(Cl)nc3ncnn3c2NOCc2ccc(Cl)cc2Cl)c(F)c1F [Example 114] | 4.02 | 
15 | Fc1c(F)c(F)c(-c2c(Cl)nc3ncnn3c2NOCc2ccc(C(F)(F)F)cc2)c(F)c1F [Example 115] | 3.77 | 
16 | Fc1c(F)c(F)c(-c2c(Cl)nc3ncnn3c2NOCc2ccccc2Cl)c(F)c1F [Example 116] | 3.58 | 
17 | Fc1c(F)c(F)c(-c2c(Cl)nc3ncnn3c2NOCc2cccc(Cl)c2)c(F)c1F [Example 117] | 3.64 | 
18 | Fc1c(F)c(F)c(-c2c(Cl)nc3ncnn3c2NOCc2cccc(C(F)(F)F)c2)c(F)c1F [Example 118] | 3.72 | 
19 | CCCCONc1c(-c2c(F)c(F)c(F)c(F)c2F)c(Cl)nc2ncnn12 [Example 119] | 3.49 | 
20 | Fc1c(F)c(F)c(-c2c(Cl)nc3ncnn3c2NOCc2c(Cl)cccc2Cl)c(F)c1F [Example 120] | 3.65 | 
21 | CONc1c(-c2c(F)c(F)c(F)c(F)c2F)c(Cl)nc2ncnn12 [Example 121] | 2.53 | 
22 | CC(C)ONc1c(-c2c(F)c(F)c(F)c(F)c2F)c(Cl)nc2ncnn12 [Example 122] | 3.04 | 
23 | CN(O)c1c(-c2c(F)cc(F)cc2F)c(Cl)nc2ncnn12 [Example 123] | 1.99 | 
24 | CN(O)c1c(-c2c(F)cccc2F)c(Cl)nc2ncnn12 [Example 124] | 2.19 | 
25 | NN(c1c(-c2c(F)cc(F)cc2F)c(Cl)nc2ncnn12)C1CCCCC1 [Example 125] | 3.33 | 
26 | CC(C)CN(N)c1c(-c2c(Cl)c(F)cc(C(F)(F)F)c2Cl)c(Cl)nc2ncnn12 [Example 126] | 2.58 | 
27 | NN(CC1CCCO1)c1c(-c2c(F)cc(F)cc2F)c(Cl)nc2ncnn12 (stereo not shown) [Example 127] | 2.55 | 

Row | SMILES | logP* [1] | also measured
28 | COCCN(N)c1c(-c2c(F)cc(F)cc2F)c(Cl)nc2ncnn12 [Example 128] | 2.26 | 
29 | NN(CCN1CCOCC1)c1c(-c2c(F)cc(F)cc2F)c(Cl)nc2ncnn12 [Example 129] | 1.1 | 
30 | NN(c1c(-c2c(F)cc(F)cc2F)c(Cl)nc2ncnn12)C1CCCC1 [Example 130] | 3.07 | 
31 | CC(C)CN(N)c1c(-c2c(F)cc(F)cc2F)c(Cl)nc2ncnn12 [Example 131] | 2.91 | 
32 | CCCCN(N)c1c(-c2c(F)cc(F)cc2F)c(Cl)nc2ncnn12 [Example 132] | 2.96 | 
33 | CC(C)N(N)c1c(-c2c(F)cc(F)cc2F)c(Cl)nc2ncnn12 [Example 133] | 2.62 | 
34 | CC(C)N(N)c1c(-c2ccc(C(F)(F)F)cc2F)c(Cl)nc2ncnn12 [Example 134] | 3.08 | 
35 | CC(C)CN(N)c1c(-c2ccc(C(F)(F)F)cc2F)c(Cl)nc2ncnn12 [Example 135] | 3.43 | 
36 | CC(C)CN(N)c1c(-c2c(Cl)cc(C(F)(F)F)cc2Cl)c(Cl)nc2ncnn12 [Example 136] | 3.85 | 
37 | CC(C)CN(N)c1c(-c2cc(C(F)(F)F)ccc2C(F)(F)F)c(Cl)nc2ncnn12 [Example 137] | 3.57 | 
38 | CC(C)CN(N)c1c(-c2c(F)cccc2Cl)c(Cl)nc2ncnn12 [Example 138] | 2.94 | 
39 | CCC(C)N(N)c1c(-c2c(F)cc(F)cc2F)c(Cl)nc2ncnn12 (stereo not shown) [Example 139] | 2.93 | 
40 | CC(C)CN(N)c1c(-c2cc(C(F)(F)F)ccc2Cl)c(Cl)nc2ncnn12 [Example 140] | 3.51 | 
41 | NN(c1c(-c2c(F)cc(F)cc2F)c(Cl)nc2ncnn12)C1CCCCCC1 [Example 141] | 3.66 | 
42 | C#CCN(N)c1c(-c2c(F)cc(F)cc2F)c(Cl)nc2ncnn12 [Example 142] | 2.22 | 
43 | CCC(C)N(N)c1c(-c2cccc(C(F)(F)F)c2Cl)c(Cl)nc2ncnn12 (stereo not shown) [Example 144] | 3.44 | 
44 | CCC(C)NNc1c(-c2cccc(C(F)(F)F)c2Cl)c(Cl)nc2ncnn12 (stereo not shown) [Example 145] | 3.37 | 
45 | CCC(C)N(N)c1c(-c2cc(C(F)(F)F)ccc2Cl)c(Cl)nc2ncnn12 (stereo not shown) [Example 146] | 3.99 | 
46 | CCC(C)NNc1c(-c2cc(C(F)(F)F)ccc2Cl)c(Cl)nc2ncnn12 (stereo not shown) [Example 147] | 3.95 | 
47 | CCC(C)N(N)c1c(-c2cc(C(F)(F)F)ccc2Cl)c(Cl)nc2ncnn12 (stereo not shown) [Example 148] | 3.53 | 
48 | CCC(C)NNc1c(-c2cc(C(F)(F)F)ccc2Cl)c(Cl)nc2ncnn12 (stereo not shown) [Example 149] | 3.47 | 
49 | CCC(C)N(N)c1c(-c2cccc3c2OC(F)(F)O3)c(Cl)nc2ncnn12 (stereo not shown) [Example 150] | 3.27 | 
50 | CCC(C)NNc1c(-c2cccc3c2OC(F)(F)O3)c(Cl)nc2ncnn12 (stereo not shown) [Example 151] | 3.21 | 
51 | CON(CC(C)C)c1c(-c2c(F)cc(F)cc2F)c(Cl)nc2ncnn12 [Example 152] | 3.78 | 
52 | CC(C)CN(N)c1c(-c2c(F)cc(F)cc2F)c(Cl)nc2ncnn12.Cl [Example 153] | 2.88 | 
53 | CCC(C)NNc1c(-c2c(Cl)cccc2Cl)c(Cl)nc2ncnn12 (stereo not shown) [Example 154] | 3.14 | 
54 | CC(C)CN(N)c1c(-c2c(Cl)cccc2Cl)c(Cl)nc2ncnn12 [Example 155] | 3.17 | 

Row | SMILES | logP* [1] | also measured
55 | CC(C)CNNc1c(-c2c(Cl)cccc2Cl)c(Cl)nc2ncnn12 [Example 156] | 3.18 | 
56 | CC(=O)NN(CC(C)C)c1c(-c2c(F)cc(F)cc2F)c(Cl)nc2ncnn12 [Example 157] | 2.25 | 
57 | CC(C)=NN(CC(C)C)c1c(-c2c(F)cc(F)cc2F)c(Cl)nc2ncnn12 [Example 158] | 3.63 | 
58 | NN(CC1CC1)c1c(-c2c(F)cc(F)cc2F)c(Cl)nc2ncnn12 [Example 159] | 2.66 | 
59 | Clc1cccc(Cl)c1-c1c(Cl)nc2ncnn2c1NNC1CCCC1 [Example 160] | 3.21 | 
60 | NN(c1c(-c2c(Cl)cccc2Cl)c(Cl)nc2ncnn12)C1CCCC1 [Example 161] | 3.37 | 
61 | NN(CC1CC1)c1c(-c2c(F)cccc2Cl)c(Cl)nc2ncnn12 [Example 162] | 2.63 | 
62 | CC(C)CN(N)c1c(-c2cccc(C(F)(F)F)c2Cl)c(Cl)nc2ncnn12 [Example 163] | 3.45 | 
63 | NN(CC1CC1)c1c(-c2c(Cl)cccc2Cl)c(Cl)nc2ncnn12 [Example 164] | 2.8 | 
64 | CC(=NNc1c(-c2c(F)cc(F)cc2F)c(Cl)nc2ncnn12)C(F)(F)F [Example 165] | 3.07 | 
65 | NN(CC1CC1(Cl)Cl)c1c(-c2c(F)cc(F)cc2F)c(Cl)nc2ncnn12 (stereo not shown) [Example 166] | 3.11 | 
66 | CC=NN(CC1CC1(Cl)Cl)c1c(-c2c(F)cc(F)cc2F)c(Cl)nc2ncnn12 (stereo not shown) [Example 167] | 3.72 | 
67 | CCOC(=O)NN(CC(C)C)c1c(-c2c(F)cc(F)cc2F)c(Cl)nc2ncnn12 [Example 168] | 2.99 | 
68 | NN(CC1CCC1)c1c(-c2c(F)cc(F)cc2F)c(Cl)nc2ncnn12 [Example 169] | 3.06 | 
69 | CC(C)CN(N)c1c(-c2c(F)cccc2F)c(Cl)nc2ncnn12 [Example 170] | 2.72 | 
70 | NN(CC1CC1(Cl)Cl)c1c(-c2c(F)cccc2Cl)c(Cl)nc2ncnn12 (stereo not shown) [Example 171] | 3.11 | 
71 | CC(C)CN(N)c1c(-c2ccc(F)cc2Cl)c(Cl)nc2ncnn12 [Example 172] | 3.15 | 
72 | NN(CC1CCC1)c1c(-c2c(F)cccc2Cl)c(Cl)nc2ncnn12 [Example 173] | 3.07 | 
73 | CCOC(=O)N(CC(C)C)OC [Example 178] |  | logP [1]: 2.38
74 | C=C(C)CN(OC)C(=O)OCC [Example 179] |  | logP [1]: 2.06
75 | CCCN(N)c1c(-c2c(F)cc(F)cc2F)c(Cl)nc2ncnn12 [drawing 47] |  | Efficacy in % (Alternaria solani): 94%
76 | CCN(N)c1c(-c2c(F)cc(F)cc2F)c(Cl)nc2ncnn12 [drawing 48] |  | Efficacy in % (Alternaria solani): 89%
77 | C=CCNNc1c(-c2c(F)cc(F)cc2F)c(Cl)nc2ncnn12 [drawing 49] |  | Efficacy in % (Alternaria solani): 94%
78 | NN(CC1CCCCC1)c1c(-c2c(F)cc(F)cc2F)c(Cl)nc2ncnn12 [drawing 50] |  | Efficacy in % (Alternaria solani): 94%
79 | CC(C)(C)NNc1c(-c2c(F)cc(F)cc2F)c(Cl)nc2ncnn12 [drawing 51] |  | Efficacy in % (Alternaria solani): 94%
